Measured values: ChEMBL document CHEMBL1201862, “PubChem BioAssay data set” (2004)
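Cells were grown in 96-well plates and exposed to each compound for 48 hours at five concentrations; endpoints were interpolated linearly between bracketing concentrations, or set to the highest concentration if not reached. Abbreviation: GI50, concentration required for 50% inhibition of growth.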 Calls of active or inactive are those of the source. No stated cut-off is given here; in the data, active = GI50 up to about 1.1 µM and inactive = higher.

Experiments:
Experiment in all cases: NCI tumour cell line growth inhibition, 48 h
[1] = system: 786-0
[2] = system: ACHN
[3] = system: COLO 205
[4] = system: HCT-116
[5] = system: HOP-92
[6] = system: Hs-578T
[7] = system: IGROV-1
[8] = system: KM12
[9] = system: M14
[10] = system: MDA-N
[11] = system: NCI-H23
[12] = system: NCI-H460
[13] = system: NCI-H522
[14] = system: OVCAR-3
[15] = system: OVCAR-8
[16] = system: RXF 393
[17] = system: SK-MEL-28
[18] = system: SW-620
[19] = system: T47D
[20] = system: UO-31

Compound | GI50 [1] | GI50 [2] | GI50 [3] | GI50 [4] | GI50 [5] | GI50 [6] | GI50 [7] | GI50 [8] | GI50 [9] | GI50 [10] | GI50 [11] | GI50 [12] | GI50 [13] | GI50 [14] | GI50 [15] | GI50 [16] | GI50 [17] | GI50 [18] | GI50 [19] | GI50 [20]
CC1=NN(c2nc(N)nc(CBr)n2)C(C)(C)C1 | 0.692 µM (active) | 3.56 µM (inactive) | 3.03 µM (inactive) | 6.27 µM (inactive) | 0.436 µM (active) | 13.9 µM (inactive) | 1.49 µM (inactive) | 10.7 µM (inactive) | 5.79 µM (inactive) | 11.5 µM (inactive) | 9.86 µM (inactive) | 7.64 µM (inactive) | 0.234 µM (active) | 3.42 µM (inactive) | 5.45 µM (inactive) | 2.78 µM (inactive) | 13.7 µM (inactive) | 4.19 µM (inactive) | 5.97 µM (inactive) | 0.384 µM (active)
COc1ccc2c(c1)-c1nc(=S)n(CCCN(C)C)c3ccc([N+](=O)[O-])c(c13)N2 | 0.279 µM (active) | 0.296 µM (active) | 0.656 µM (active) | 0.224 µM (active) | 2.15 µM (inactive) | 1.72 µM (inactive) | 0.345 µM (active) | 0.543 µM (active) | 8.26 µM (inactive) | 0.815 µM (active) | 1.08 µM (active) | 0.358 µM (active) | 0.766 µM (active) | 1.59 µM (inactive) | 0.456 µM (active) | 0.471 µM (active) | 1.13 µM (inactive) | 0.344 µM (active) | 18.7 µM (inactive) | 0.49 µM (active)
O=C(CC(C(=O)c1cccs1)c1ccsc1)c1ccsc1 (stereo not given) | 46.2 µM (inactive) | 58.2 µM (inactive) | 18.2 µM (inactive) | 27.4 µM (inactive) | 29.2 µM (inactive) | 20.3 µM (inactive) | 54.1 µM (inactive) | 42.9 µM (inactive) | 16.9 µM (inactive) | > 10 µM (inactive) | 53 µM (inactive) | 23 µM (inactive) | 20.4 µM (inactive) | 40.2 µM (inactive) | 39.4 µM (inactive) | 25.6 µM (inactive) | 50.5 µM (inactive) | 29.7 µM (inactive) | 30.6 µM (inactive) | 31.4 µM (inactive)
Nc1ncnc2c1ncn2CC(O)C(=O)O (stereo not given) | > 100 µM (inactive) | > 100 µM (inactive) | > 100 µM (inactive) | > 100 µM (inactive) | > 100 µM (inactive) | > 100 µM (inactive) | > 100 µM (inactive) | > 100 µM (inactive) | > 100 µM (inactive) | > 100 µM (inactive) | > 100 µM (inactive) | > 100 µM (inactive) | > 100 µM (inactive) | > 100 µM (inactive) | > 100 µM (inactive) | > 100 µM (inactive) | > 100 µM (inactive) | > 100 µM (inactive) | > 100 µM (inactive) | > 100 µM (inactive)
COc1cccc(C2CC(C)(N3CCCC3)Oc3cc4c(cc32)OCO4)c1O (stereo not given) | 32.8 µM (inactive) | 36.7 µM (inactive) | 19.1 µM (inactive) | 13.2 µM (inactive) | 31.3 µM (inactive) | 21.5 µM (inactive) | 26.2 µM (inactive) | 22 µM (inactive) | 17.3 µM (inactive) | 2.54 µM (inactive) | 27.4 µM (inactive) | 28.2 µM (inactive) | 19.1 µM (inactive) | 20 µM (inactive) | 30.2 µM (inactive) | 26.7 µM (inactive) | 22.5 µM (inactive) | 25.8 µM (inactive) | 30.8 µM (inactive) | 32.5 µM (inactive)
CN(C)c1ccc(C2CC(c3ccc4ccccc4c3O)=NN2c2ccc([N+](=O)[O-])cc2[N+](=O)[O-])cc1 (stereo not given) | > 100 µM (inactive) | > 100 µM (inactive) | 38.7 µM (inactive) | 37.5 µM (inactive) | > 100 µM (inactive) | 48.8 µM (inactive) | 26.2 µM (inactive) | 24.4 µM (inactive) | 63 µM (inactive) | 16.3 µM (inactive) | 17 µM (inactive) | 32.3 µM (inactive) | 21 µM (inactive) | 22 µM (inactive) | 56 µM (inactive) | 41.2 µM (inactive) | 56 µM (inactive) | 36.3 µM (inactive) | 68.1 µM (inactive) | 27.4 µM (inactive)
Cc1cn(S(=O)(=O)c2ccccc2)c2c(OCc3ccccc3)cc(NS(C)(=O)=O)cc12 | 16.4 µM (inactive) | 20.4 µM (inactive) | 10.3 µM (inactive) | 9.12 µM (inactive) | 27.2 µM (inactive) | 39.5 µM (inactive) | 33 µM (inactive) | 10.9 µM (inactive) | 19.2 µM (inactive) | 10.7 µM (inactive) | 16 µM (inactive) | 18.5 µM (inactive) | 18.8 µM (inactive) | 10.6 µM (inactive) | 32 µM (inactive) | 14.6 µM (inactive) | 52.8 µM (inactive) | 17.8 µM (inactive) | 4.72 µM (inactive) | 17.7 µM (inactive)
CCN(CC)CCCNc1nncc2cc3c([nH]c4ccc(OC)cc43)c(C)c12 | 4.13 µM (inactive) | 8.26 µM (inactive) | 7.26 µM (inactive) | 3.38 µM (inactive) | 10.1 µM (inactive) | 10.4 µM (inactive) | 4.14 µM (inactive) | 4.2 µM (inactive) | 12.9 µM (inactive) | 10.4 µM (inactive) | 10.7 µM (inactive) | 3.63 µM (inactive) | 2.7 µM (inactive) | 7.05 µM (inactive) | 3.98 µM (inactive) | 5.81 µM (inactive) | 15.7 µM (inactive) | 4.61 µM (inactive) | 11.8 µM (inactive) | 11.5 µM (inactive)
CN1Cc2ccccc2/C=C\c2ccccc21 | 95.9 µM (inactive) | > 100 µM (inactive) | 44.5 µM (inactive) | 78.2 µM (inactive) | 28 µM (inactive) | 44.8 µM (inactive) | > 100 µM (inactive) | 52.4 µM (inactive) | 46.8 µM (inactive) | 42.2 µM (inactive) | 62.1 µM (inactive) | 42.7 µM (inactive) | 37.5 µM (inactive) | 47.3 µM (inactive) | > 100 µM (inactive) | 30.1 µM (inactive) | > 100 µM (inactive) | > 100 µM (inactive) | 50.5 µM (inactive) | 80.2 µM (inactive)
Cc1n[nH]c(=O)n1C1CCCC1 | > 100 µM (inactive) | > 100 µM (inactive) | > 100 µM (inactive) | > 100 µM (inactive) | > 100 µM (inactive) | > 100 µM (inactive) | > 100 µM (inactive) | > 100 µM (inactive) | > 100 µM (inactive) | > 100 µM (inactive) | > 100 µM (inactive) | > 100 µM (inactive) | > 100 µM (inactive) | > 100 µM (inactive) | > 100 µM (inactive) | > 100 µM (inactive) | > 100 µM (inactive) | > 100 µM (inactive) | > 100 µM (inactive) | > 100 µM (inactive)
O=c1cc(C(F)(F)F)c2cc3c(cc2o1)NCCC3 | 35.2 µM (inactive) | > 100 µM (inactive) | > 100 µM (inactive) | 28.8 µM (inactive) | 46.1 µM (inactive) | 18.5 µM (inactive) | 97.3 µM (inactive) | > 100 µM (inactive) | > 100 µM (inactive) | > 100 µM (inactive) | > 100 µM (inactive) | > 100 µM (inactive) | 49.5 µM (inactive) | > 100 µM (inactive) | 42.2 µM (inactive) | < 0.01 µM (active) | > 100 µM (inactive) | > 100 µM (inactive) | 9.46 µM (inactive) | 61.1 µM (inactive)
Cc1[nH]n(-c2ccc(S(=O)(=O)O)cc2)c(=O)c1/N=N/c1ccccc1 | > 100 µM (inactive) | 55.2 µM (inactive) | > 100 µM (inactive) | > 100 µM (inactive) | > 100 µM (inactive) | > 100 µM (inactive) | > 100 µM (inactive) | > 100 µM (inactive) | > 100 µM (inactive) | > 100 µM (inactive) | > 100 µM (inactive) | > 100 µM (inactive) | 35 µM (inactive) | > 100 µM (inactive) | > 100 µM (inactive) | > 100 µM (inactive) | > 100 µM (inactive) | > 100 µM (inactive) | > 100 µM (inactive) | > 100 µM (inactive)
O=C1c2ccccc2-c2oc(=O)c3ccccc3c21 | > 100 µM (inactive) | > 100 µM (inactive) | > 100 µM (inactive) | > 100 µM (inactive) | > 100 µM (inactive) | > 100 µM (inactive) | 32.7 µM (inactive) | > 100 µM (inactive) | > 100 µM (inactive) | > 100 µM (inactive) | > 100 µM (inactive) | > 100 µM (inactive) | 0.962 µM (active) | > 100 µM (inactive) | > 100 µM (inactive) | > 100 µM (inactive) | > 100 µM (inactive) | > 100 µM (inactive) | > 100 µM (inactive) | > 100 µM (inactive)
CC(=O)Oc1ccc(/C=C/C(=O)NCCOC(=O)/C=C/c2ccc(OC(C)=O)c(OC(C)=O)c2)cc1OC(C)=O | 19.5 µM (inactive) | 26.2 µM (inactive) | 42.5 µM (inactive) | 14.5 µM (inactive) | 28.2 µM (inactive) | 33.6 µM (inactive) | 33 µM (inactive) | 32.4 µM (inactive) | 27.8 µM (inactive) | 22.5 µM (inactive) | 26.4 µM (inactive) | 32 µM (inactive) | 8.97 µM (inactive) | 16.1 µM (inactive) | 25.2 µM (inactive) | 11.7 µM (inactive) | 34.4 µM (inactive) | 19.3 µM (inactive) | 20.4 µM (inactive) | 22.9 µM (inactive)
